Experimental data as given in ChEMBL document CHEMBL5370591, “A Potent and Narrow-Spectrum Antibacterial against Clostridioides difficile Infection” (J Med Chem, 2023).
Values after ≈ are worked out from the molar mass of the structure shown. Active and inactive are the calls of the source. The calls are words filed in the database; no cut-off is given here.

How the values were obtained:
Clostridioides difficile [1] = experiment: Antibacterial activity against Clostridium difficile ATCC 43255 measured after 48 hrs by two fold serial dilution method; assay type: functional
THP-1 = experiment: Cytotoxicity against human THP-1 cells assessed as increase in LDH release incubate for 24 hrs by trypan-blue staining based analysis; assay type: functional, cell-based; conditions: THP-1, 24 h
[2] = Selectivity ratio of IC50 for human THP-1 cells to MIC for Clostridium difficile ATCC 43255; assay type: toxicity
HepG2 = experiment: Antiproliferative activity against human HepG2 cells assessed as inhibition of cell growth by XTT assay; assay type: functional, cell-based
[3] = Selectivity ratio of IC50 for human HepG2 cells to MIC for Clostridium difficile ATCC 43255; assay type: toxicity
Clostridioides difficile [4] = experiment: Bactericidal activity against Clostridium difficile ATCC 43255 incubated for 48 hrs under anaerobic conditions; assay type: functional
[5] = Selectivity ratio of MBC for bactericidal activity against Clostridium difficile ATCC 43255 to MIC for antibacterial activity for Clostridium difficile ATCC 43255; assay type: functional, Clostridioides difficile
Clostridioides difficile [6] = experiment: Antibacterial activity against Clostridium difficile ATCC 43255 assessed as log reduction in bacterial growth at 1 to 8 times MIC measured upto 48 hrs under anaerobic condition; assay type: functional
Clostridioides difficile [7] = experiment: Antibacterial activity against Clostridium difficile ATCC 43255 isolated from abdominal wound assessed as inhibition of bacterial growth measured after 48 hrs by two fold serial dilution method; assay type: functional
Clostridioides difficile [8] = experiment: Antibacterial activity against Clostridium difficile BAA-1870 assessed as inhibition of bacterial growth measured after 48 hrs by two fold serial dilution method; assay type: functional
Clostridioides difficile [9] = experiment: Antibacterial activity against Clostridium difficile BAA-1803 clinical isolate assessed as inhibition of bacterial growth measured after 48 hrs by two fold serial dilution method; assay type: functional
Clostridioides difficile [10] = experiment: Antibacterial activity against Clostridium difficile NR49310 isolated from human feces assessed as inhibition of bacterial growth measured after 48 hrs by two fold serial dilution method; assay type: functional
Clostridioides difficile [11] = experiment: Antibacterial activity against Clostridium difficile NR49294 isolated from human feces assessed as inhibition of bacterial growth measured after 48 hrs by two fold serial dilution method; assay type: functional
Clostridioides difficile [12] = experiment: Antibacterial activity against Clostridium difficile NR49305 isolated from human feces assessed as inhibition of bacterial growth measured after 48 hrs by two fold serial dilution method; assay type: functional
Clostridioides difficile [13] = experiment: Antibacterial activity against Clostridium difficile NR49318 isolated from human feces assessed as inhibition of bacterial growth measured after 48 hrs by two fold serial dilution method; assay type: functional
Clostridioides difficile [14] = experiment: Antibacterial activity against Clostridium difficile NR49292 assessed as inhibition of bacterial growth measured after 48 hrs by two fold serial dilution method; assay type: functional
Clostridioides difficile [15] = experiment: Antibacterial activity against Clostridium difficile NR49302 isolated from human feces assessed as inhibition of bacterial growth measured after 48 hrs by two fold serial dilution method; assay type: functional
Clostridioides difficile [16] = experiment: Antibacterial activity against Clostridium difficile 26675 clinical isolate assessed as inhibition of bacterial growth measured after 48 hrs by two fold serial dilution method; assay type: functional
Clostridioides difficile [17] = experiment: Antibacterial activity against Clostridium difficile 23828 clinical isolate assessed as inhibition of bacterial growth measured after 48 hrs by two fold serial dilution method; assay type: functional
Clostridioides difficile [18] = experiment: Antibacterial activity against Clostridium difficile 24531 clinical isolate assessed as inhibition of bacterial growth measured after 48 hrs by two fold serial dilution method; assay type: functional
Staphylococcus aureus [19] = experiment: Antibacterial activity against methicillin/oxacillin/tetracycline resistant vancomycin resistant Staphylococcus aureus NRS100 assessed as inhibition of bacterial growth measured after 48 hrs by two fold serial dilution method; assay type: functional
Staphylococcus aureus [20] = experiment: Antibacterial activity against ciprofloxacin/gentamicin/oxacillin/pencillin/linezolid resistant Staphylococcus aureus NRS119 assessed as inhibition of bacterial growth measured after 48 hrs by two fold serial dilution method; assay type: functional
[21] = tested on: Staphylococcus haemolyticus; experiment: Antibacterial activity against Staphylococcus haemolyticus ATCC 29970 assessed as inhibition of bacterial growth measured after 48 hrs by two fold serial dilution method; assay type: functional
Streptococcus pyogenes = experiment: Antibacterial activity against Streptococcus pyogenes ATCC 49399 assessed as inhibition of bacterial growth measured after 48 hrs by two fold serial dilution method; assay type: functional
Enterococcus faecalis = experiment: Antibacterial activity against vancomycin resistant Enterococcus faecalis 99 clinical isolate assessed as inhibition of bacterial growth measured after 48 hrs by two fold serial dilution method; assay type: functional
Enterococcus faecium [22] = experiment: Antibacterial activity against vancomycin susceptible Enterococcus faecium119-39A clinical isolate assessed as inhibition of bacterial growth measured after 48 hrs by two fold serial dilution method; assay type: functional; conditions: 119-39A
Enterococcus faecium [23] = experiment: Antibacterial activity against vancomycin resistant Enterococcus faecium 106 clinical isolate assessed as inhibition of bacterial growth measured after 48 hrs by two fold serial dilution method; assay type: functional
Bacteroides fragilis = experiment: Antibacterial activity against Bacteroides fragilis HM-709 assessed as inhibition of bacterial growth measured after 48 hrs by two fold serial dilution method; assay type: functional
Corynebacterium sp. = experiment: Antibacterial activity against Corynebacterium sp. HM-784 assessed as inhibition of bacterial growth measured after 48 hrs by two fold serial dilution method; assay type: functional
[24] = tested on: Limosilactobacillus reuteri; experiment: Antibacterial activity against Lactobacillus reuteri HM-102 assessed as inhibition of bacterial growth measured after 48 hrs by two fold serial dilution method; assay type: functional
Lactobacillus gasseri = experiment: Antibacterial activity against Lactobacillus gasseri HM-644 assessed as inhibition of bacterial growth measured after 48 hrs by two fold serial dilution method; assay type: functional
Eubacterium sp. = experiment: Antibacterial activity against Eubacterium sp. HM-178 assessed as inhibition of bacterial growth measured after 48 hrs by two fold serial dilution method; assay type: functional
Klebsiella pneumoniae = experiment: Antibacterial activity against Klebsiella pneumoniae ATCC700603 assessed as inhibition of bacterial growth measured after 48 hrs by two fold serial dilution method; assay type: functional
Acinetobacter baumannii = experiment: Antibacterial activity against Acinetobacter baumannii ATCC17961 assessed as inhibition of bacterial growth measured after 48 hrs by two fold serial dilution method; assay type: functional
Pseudomonas aeruginosa = experiment: Antibacterial activity against Pseudomonas aeruginosa ATCC27853 assessed as inhibition of bacterial growth measured after 48 hrs by two fold serial dilution method; assay type: functional
Klebsiella aerogenes = experiment: Antibacterial activity against Klebsiella aerogenes ATCC35029 assessed as inhibition of bacterial growth measured after 48 hrs by two fold serial dilution method; assay type: functional
Escherichia coli = experiment: Antibacterial activity against Escherichia coli ATCC25922 assessed as inhibition of bacterial growth measured after 48 hrs by two fold serial dilution method; assay type: functional
Clostridioides difficile [25] = experiment: Antibacterial activity against Clostridium difficile ATCC 43255 assessed as as time duration of post-antibiotic effect for suppression of bacterial growth at 2 times MIC incubated for 1 hr in broth solution; assay type: functional
Clostridioides difficile [26] = experiment: Antibacterial activity against Clostridium difficile ATCC 43255 assessed as as time duration of post-antibiotic effect for suppression of bacterial growth at 1 time MIC incubated for 1 hr in broth solution; assay type: functional
Clostridioides difficile [27] = experiment: Antibacterial activity against Clostridium difficile ATCC 43255 assessed as as time duration of post-antibiotic effect for suppression of bacterial growth at 4 times MIC incubated for 1 hr in broth solution; assay type: functional
Clostridioides difficile [28] = experiment: Antibacterial activity against Clostridium difficile ATCC 43255 assessed as as time duration of post-antibiotic effect for suppression of bacterial growth at 8 times MIC incubated for 1 hr in broth solution; assay type: functional
Clostridioides difficile [29] = experiment: Induction of resistance against Clostridium difficile ATCC 43255 assessed as fold increase in MIC measured after 8 passages under anaerobic conditions; assay type: functional
Clostridioides difficile [30] = experiment: Induction of resistance against Clostridium difficile ATCC 43255 assessed as fold increase in MIC measured after 14 passages under anaerobic conditions; assay type: functional
Clostridioides difficile [31] = experiment: Induction of resistance against Clostridium difficile ATCC 43255 assessed as fold increase in MIC measured after 20 passages under anaerobic conditions; assay type: functional
Clostridioides difficile [32] = experiment: Antibacterial activity against Clostridium difficile ATCC 43255 assessed as damage in cell wall at 8 time MIC incubated for 24 hrs by scanning electron microscopy based analysis; assay type: functional, organism-based

O=[N+]([O-])c1c[nH]c(-c2nc(-c3ccc(OC4CCCC4)cc3)no2)n1
MIC (Clostridioides difficile [1]): 0.25 µg/mL (≈ 0.732 µM) | IC50 (THP-1): > 128 µg/mL | selectivity ratio [2]: > 512 | IC50 (HepG2): 53.4 µg/mL (≈ 156 µM) | selectivity ratio [3]: 214 | MBC (Clostridioides difficile [4]): 0.5 µg/mL (≈ 1.46 µM) | Ratio [5]: 2 | Activity (Clostridioides difficile [6]): 4 log10CFU/ml | MIC (Clostridioides difficile [7]): 0.25 µg/mL (≈ 0.732 µM) | MIC (Clostridioides difficile [8]): 0.125 µg/mL (≈ 0.366 µM) | MIC (Clostridioides difficile [9]): 0.125 µg/mL (≈ 0.366 µM) | MIC (Clostridioides difficile [10]): 0.25 µg/mL (≈ 0.732 µM) | MIC (Clostridioides difficile [11]): 0.5 µg/mL (≈ 1.46 µM) | MIC (Clostridioides difficile [12]): 0.125 µg/mL (≈ 0.366 µM) | MIC (Clostridioides difficile [13]): 0.5 µg/mL (≈ 1.46 µM) | MIC (Clostridioides difficile [14]): 0.125 µg/mL (≈ 0.366 µM) | MIC (Clostridioides difficile [15]): 0.25 µg/mL (≈ 0.732 µM) | MIC (Clostridioides difficile [16]): 2 µg/mL (≈ 5.86 µM) | MIC (Clostridioides difficile [17]): 1 µg/mL (≈ 2.93 µM) | MIC (Clostridioides difficile [18]): 0.125 µg/mL (≈ 0.366 µM) | MIC (Staphylococcus aureus [19]): 64 µg/mL (≈ 188 µM) | MIC (Staphylococcus aureus [20]): 32 µg/mL (≈ 93.8 µM) | MIC [21]: 32 µg/mL (≈ 93.8 µM) | MIC (Streptococcus pyogenes): > 128 µg/mL | MIC (Enterococcus faecalis): 128 µg/mL (≈ 375 µM) | MIC (Enterococcus faecium [22]): 128 µg/mL (≈ 375 µM) | MIC (Enterococcus faecium [23]): 128 µg/mL (≈ 375 µM) | MIC (Bacteroides fragilis): 128 µg/mL (≈ 375 µM) | MIC (Corynebacterium sp.): > 128 µg/mL | MIC [24]: > 128 µg/mL | MIC (Lactobacillus gasseri): > 128 µg/mL | MIC (Eubacterium sp.): 64 µg/mL (≈ 188 µM) | MIC (Klebsiella pneumoniae): > 128 µg/mL | MIC (Acinetobacter baumannii): > 128 µg/mL | MIC (Pseudomonas aeruginosa): > 128 µg/mL | MIC (Klebsiella aerogenes): > 128 µg/mL | MIC (Escherichia coli): > 128 µg/mL | Time (Clostridioides difficile [25]): 5 h | Time (Clostridioides difficile [26]): 3 h | Time (Clostridioides difficile [27]): 7 h | Time (Clostridioides difficile [28]): 7 h | fold change (FC) (Clostridioides difficile [29]): 2 | fold change (FC) (Clostridioides difficile [30]): 4 | fold change (FC) (Clostridioides difficile [31]): 8 | Activity (Clostridioides difficile [32]): Active
